Where two headings read alike, the source gives them in different places.
Key:
[1] = system: Human ovarian cancer cell line SKOV3; assay: Inherent cytotoxicity (dark toxicity) in SKOV3 cells (AlamarBlue viability); assay type: cell-based
Protocol: Photosensitizers (e.g. chlorin analogue, chlorin e4 disodium (provided by Advanced Molecular Technologies, Scoresby) or Talaporfin sodium (purchased from Focus Bioscience cat #HY-16477-5MG)) were resuspended in 100% dimethylsulfoxide (DMSO) at a concentration of 5.5 mM. Samples were stored at 4° C. protected from light.
All data are shown as mean±SD (where appropriate).
Untreated cells were used as a control. […] All measurements were made in quadruplicate.

[2] = system: Human ovarian cancer cell line SKOV3; assay: Phototoxicity in SKOV3 cells after 660 nm laser or LED activation (AlamarBlue viability); assay type: cell-based; conditions: SKOV3 cells; for IC90: 24 hours uptake, 50 mW/cm^2 for 5 mins (15 J/cm^2)
Protocol: Samples were stored at 4° C. protected from light. […] All data are shown as mean±SD (where appropriate). […] Laser and LED exposure induce an equivalent response in relation to phototoxicity. Following activation, cells were cultured for a further 24 hours. Media was then replaced with fresh media containing AlamarBlue, and % viable cells remaining assessed as above. Controls included cells treated with reduced chlorin analogues but not activated by laser light; cells without reduced chlorin analogue treatment but with laser light; and untreated controls. All measurements were made in quadruplicate.

[3] = system: indomethacin-induced gastric lesions; conditions: rats; background statement; cited from earlier work
[4] = system: TAA- or CCl4-induced acute liver injuries; conditions: mice; background statement; cited from earlier work
[5] = Estimated pKa of the carboxylic acid; assay type: physicochemical; conditions: estimate, no measurement described
Text: As PBS buffer (pH 7.4) is used in the experiments and the carboxylic acid in reduced phyllochlorin (and the same carboxy group in other related chlorins) is estimated to have a pKa of less than 5, reduced phyllochlorin in the PBS buffer will exist predominantly as the sodium and potassium salts with very little to no free acid.

[6] = system: C57BL/6 mice; assay: Acute toxicity after intraperitoneal injection into mice; assay type: in vivo; conditions: 5 mg/kg intraperitoneal, observed for 30 mins, prepared with 1% PVP in PBS+20 mM HEPES
Protocol: To assess acute toxicity, reduced phyllochlorin or chlorin e4 disodium (each prepared with 1% PVP in PBS+20 mM HEPES) were administered at a dose of 5 mg/kg to C57BL/6 mice by intraperitoneal injection.

[7] = Homo sapiens, SK-OV-3, light or radiation study, 660 nm LED panel, values marked *, read-out: Phototoxicity μM (IC90), measured by LED
[8] = SKOV3 cells, 24 hours incubation, no light activation
[9] = 660 nm laser, viability 24 hours after activation, read-out: Phototoxicity μM (IC90)

Molecule | Dark toxicity μM (IC10) ([1]; human, 24 h) [µM] | Dark toxicity μM (IC10) [1, 8] [µM] | IC90 [2, 9] [µM] | Dark toxicity μM (IC10) [1] [µM] | also measured
CCC1=C(C)c2cc3[nH]c(cc4nc(c(C)c5[nH]c(cc1n2)c(C)c5C(=O)O)[C@@H](CCC(=O)O)[C@@H]4C)c(C)c3CC [Compound 36, Reduced Chlorin e4] | 12.200 | – | – | – | IC90 ([2]; Homo sapiens, SK-OV-3, light or radiation study, 660 nm laser, viability 24 hours after activation, read-out: Phototoxicity μM (IC90)): 4.36 µM
CCC1=C(C)c2cc3[nH]c(cc4nc(c5c6[nH]c(cc1n2)c(C)c6C(=O)OC5)[C@@H](CCC(=O)O)[C@@H]4C)c(C)c3CC [Compound 39, Reduced Chlorin K] | 6.613 | – | – | – | IC90 [2, 7]: 0.141 µM
CCC1=C(C)c2cc3[nH]c(cc4nc(c5c6[nH]c(cc1n2)c(C)c6C(=O)OC5)[C@@H](CCC(=O)N(C)CCCS[C@@H]1O[C@H](CO)[C@@H](O)[C@H](O)[C@H]1O)[C@@H]4C)c(C)c3CC [Compound 40, Reduced Chlorin K β-D-1-thioglucose-N-methylpropylamide] | 3.222 | – | – | – | IC90 [2, 7]: 0.229 µM
C=Cc1c(C)c2cc3nc(c(C)c4[nH]c(cc5nc(cc1[nH]2)C(C)=C5CC)c(C)c4C(=O)O)[C@@H](CCC(=O)O)[C@@H]3C [chlorin e4, Chlorin e4] | – | – | – | – | effect against indomethacin-induced gastric lesions [3]: protective effect; effect against TAA- or CCl4-induced acute liver injuries [4]: protective effect
Phyllochlorin free acid [reference compound] | – | 13.50 | 0.43 | – | –
Phyllochlorin sodium salt [reference compound] | – | 21.96 | 0.35 | – | –
Reduced Phyllochlorin Methyl Ester [Compound 6] | – | – | 0.371 | 11.650 | –
Reduced Phyllochlorin N-(2-(2-(2-picolinylethoxy)ethoxy)ethyl)-N-methyl-3-amide chloride [Compound 28] | – | 1.510 | – | – | IC90 ([2]; 660 nm LED panel, values marked *, read-out: Phototoxicity μM (IC90), measured by LED): 0.0326 µM
Reduced Phyllochlorin N-(2-(2-hydroxyethoxy)ethyl)-N-methylpropylamide [Compound 7] | – | – | 0.036 | 26.100 | –
Reduced Phyllochlorin [Compound 1] | – | – | 0.176 | 10.450 | Dark toxicity compared to non-meso analogue [1]: largely unaffected; pKa of the carboxylic acid (estimated) [5]: less than 5; clinical signs of acute toxicity (squinting, piloerection, loss of motility, general behaviour) [6]: safe for injection; increase in phototoxicity of meso-compound compared to non-meso analogue ([2]; vs phyllochlorin free acid / phyllochlorin sodium salt): 2.4 fold
